According to paper PMC2585076, “Development of selective blockers for Ca^2+-activated Cl^- channel using Xenopus laevis oocytes with an improved drug screening strategy” (Molecular Brain, 2008):
Read-outs that look alike come from different tables or passages of the source.

Assays:
[1] = biological target: T1, Ca^2+-activated Cl^- channel (CaCC) (Xenopus laevis, UniProt B5SVV6); type: cell-based; details: block of Cl^- current induced by 5 mM external Ca^2+, ionomycin then thapsigargin treated oocytes, chelerythrine in intracellular solution, holding potential -60 mV
Protocol: To exclude the effect of PKC in CaCC current, PKC inhibitor chelerythrine was added to the intracellular solution. […] Additional variability in peak amplitude can come from the Ca^2+ induced Ca^2+ release from intracellular stores. To eliminate the contribution of Ca^2+ release from intracellular stores, Ca^2+ ATPase inhibitor, thapsigargin was treated on ionomycin pretreated oocytes. […] Therefore, a reliable protocol for drug screening of CaCCs in Xenopus oocytes was established with treatment of 1 μM thapsigargin for 90 min to ionomycin treated oocytes followed by recording with microelectrodes filled with intracellular solution containing 1 μM chelerythrine.
Using the optimized drug screening protocol, the effect of known blockers of CaCC was tested.
The animals were anaesthetized by cooling with ice [30]. Ovarian follicles were surgically removed, treated with 2 mg/ml collagenase type IA at room temperature for 90 min in Ca^2+ free Barth's solution containing 89 mM NaCl, 1.0 mM KCl, 2.4 mM NaHCO3, 0.82 mM MgSO4 and 10 mM HEPES (pH 7.4). […]

[2] = biological target: T1, Ca^2+-activated Cl^- channel (CaCC); details: endogenous CaCCs in Xenopus laevis oocytes, TEVC; read-out: IC50 * (IC50 previously studied); cited from earlier work

T1 sequence (B5SVV6 entry or part of it): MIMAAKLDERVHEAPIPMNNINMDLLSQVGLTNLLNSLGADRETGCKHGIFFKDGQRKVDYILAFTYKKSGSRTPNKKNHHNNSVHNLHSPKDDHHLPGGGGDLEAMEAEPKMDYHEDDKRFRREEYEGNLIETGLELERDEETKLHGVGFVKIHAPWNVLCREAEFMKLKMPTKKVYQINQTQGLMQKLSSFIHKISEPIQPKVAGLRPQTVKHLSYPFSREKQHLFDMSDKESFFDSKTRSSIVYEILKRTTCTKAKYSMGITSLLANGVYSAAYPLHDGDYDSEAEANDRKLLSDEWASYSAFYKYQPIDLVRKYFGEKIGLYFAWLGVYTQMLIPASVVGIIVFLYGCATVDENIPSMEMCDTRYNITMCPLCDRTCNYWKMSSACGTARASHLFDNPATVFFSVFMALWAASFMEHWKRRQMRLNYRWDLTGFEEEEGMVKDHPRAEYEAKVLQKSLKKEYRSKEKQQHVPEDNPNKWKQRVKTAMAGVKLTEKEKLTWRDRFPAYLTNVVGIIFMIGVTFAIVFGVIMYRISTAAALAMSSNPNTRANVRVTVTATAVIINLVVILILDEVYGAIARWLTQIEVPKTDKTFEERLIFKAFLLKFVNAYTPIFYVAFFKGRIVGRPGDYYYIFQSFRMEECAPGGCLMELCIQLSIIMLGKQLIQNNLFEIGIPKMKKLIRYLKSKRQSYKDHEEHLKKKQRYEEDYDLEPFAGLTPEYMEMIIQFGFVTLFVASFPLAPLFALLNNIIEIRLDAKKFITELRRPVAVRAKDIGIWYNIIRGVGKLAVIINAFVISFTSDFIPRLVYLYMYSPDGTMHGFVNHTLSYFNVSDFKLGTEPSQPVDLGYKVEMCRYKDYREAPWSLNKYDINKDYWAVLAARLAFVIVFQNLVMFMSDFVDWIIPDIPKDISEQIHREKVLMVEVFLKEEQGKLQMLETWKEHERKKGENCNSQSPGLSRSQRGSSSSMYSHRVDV

Question: For `O=C(O)c1ccccc1Nc1ccccc1[N+](=O)[O-]` [N-(2-Nitrophenyl)-anthranilic acid], which IC50 [1] is on record?
Answer: low potency

Question: Which IC50 ([1]; read-out: IC50) does the source give for `O=C(O)c1ccccc1Nc1ccc(C(F)(F)F)cc1` [N-(4-trifluoromethylphenyl)anthranilic acid] here?
Answer: 6 µM

Question: Which IC50 [2] does the source give for `O=C(O)c1ccccc1Nc1ccccc1` [DPC, diphenylamine-2-carboxylate] here?
Answer: 111 µM
